Consider two molecules from publication PMC7005530, “A selective androgen receptor modulator SARM‐2f activates androgen receptor, increases lean body mass, and suppresses blood lipid levels in cynomolgus monkeys” (Pharmacology Research & Perspectives, 2020).

The EC50 is the concentration needed to bring the measured effect to its halfway point.

The conditions of series [1]: TE intramuscular 20 mg/kg, monkeys, cited from earlier work.
Series [2] is described as follows: Plasma lipid levels after 4-week treatment. It is filed as in vivo, cynomolgus monkey. The settings on record: after 4 wks; SARM‐2f 1, 3, 10 mg/kg daily p.o.; TE 2 mg/kg every 2 wks; vs vehicle. The procedure:
The monkeys were divided into five groups by weight randomization (MiTOX system ver2.0, Mitsui E & S Systems Research Inc) on the last day of the habituation period. SARM‐2f was orally administered at daily doses of 1, 3, or 10 mg/kg for 4 weeks between 9:00 and 11:00 hours, using 0.5% w/v methylcellulose as the vehicle. TE was injected intramuscularly on Day 0 and Day 13; the dosing start was set at Day 0 at a dose of 2 mg/kg using sesame oil as the vehicle. The route of administration and dose of TE was selected according to the route and dose mentioned in the clinical indications. BW was measured every week before dosing (between 8:30 and 9:00 hours), and LBM was measured every 2 weeks after dosing and before feeding (between 11:30 and 14:30 hours) using an X‐ray bone density measuring device (Discovery, HOLOGIC USA). Blood collection for lipid profiles was conducted on the day after the completion of the four‐week multiple administration of SARM‐2f or TE. Plasma levels of total cholesterol (T‐chol), HDL‐c, low‐density lipoprotein cholesterol (LDL‐c), triglyceride (TG), alanine aminotransferase (ALT), and […] (AST) were measured by an automatic JCA‐BM8 analysis system (JEOL Ltd.). Plasma lipoprotein (a) (Lp (a)) levels were measured using a multiplate absorbance measuring system (Multiscan Ascent, Thermo Fisher Scientific KK). […]

Series [3] is described as follows: Liver function tests (AST, ALT) after 4-week treatment. The settings on record: after 4 wks; SARM‐2f 1, 3, 10 mg/kg daily p.o.; TE 2 mg/kg every 2 wks; vs vehicle. The format is in vivo, cynomolgus monkey. Here is the method: The monkeys were divided into five groups by weight randomization (MiTOX system ver2.0, Mitsui E & S Systems Research Inc) on the last day of the habituation period. SARM‐2f was orally administered at daily doses of 1, 3, or 10 mg/kg for 4 weeks between 9:00 and 11:00 hours, using 0.5% w/v methylcellulose as the vehicle. TE was injected intramuscularly on Day 0 and Day 13; the dosing start was set at Day 0 at a dose of 2 mg/kg using sesame oil as the vehicle. The route of administration and dose of TE was selected according to the route and dose mentioned in the clinical indications. BW was measured every week before dosing (between 8:30 and 9:00 hours), and LBM was measured every 2 weeks after dosing and before feeding (between 11:30 and 14:30 hours) using an X‐ray bone density measuring device (Discovery, HOLOGIC USA). Blood collection for lipid profiles was conducted on the day after the completion of the four‐week multiple administration of SARM‐2f or TE. Plasma levels of total cholesterol (T‐chol), HDL‐c, low‐density lipoprotein cholesterol (LDL‐c), triglyceride (TG), alanine aminotransferase (ALT), and […] (AST) were measured by an automatic JCA‐BM8 analysis system (JEOL Ltd.). Plasma lipoprotein (a) (Lp (a)) levels were measured using a multiplate absorbance measuring system (Multiscan Ascent, Thermo Fisher Scientific KK).
(§1) In the reporter assays, EC50 was calculated using Graph Pad Prism version 6. The effects of SARM‐2f or TE on BW and LBM were analyzed by t test, with Bonferroni correction for repeated measurements.

The target in a further series is T1, rat AR (Rattus norvegicus, UniProt P15207).
T1 construct: expressed in transfected cells; host or cells: COS7
T1 sequence (P15207 1-902): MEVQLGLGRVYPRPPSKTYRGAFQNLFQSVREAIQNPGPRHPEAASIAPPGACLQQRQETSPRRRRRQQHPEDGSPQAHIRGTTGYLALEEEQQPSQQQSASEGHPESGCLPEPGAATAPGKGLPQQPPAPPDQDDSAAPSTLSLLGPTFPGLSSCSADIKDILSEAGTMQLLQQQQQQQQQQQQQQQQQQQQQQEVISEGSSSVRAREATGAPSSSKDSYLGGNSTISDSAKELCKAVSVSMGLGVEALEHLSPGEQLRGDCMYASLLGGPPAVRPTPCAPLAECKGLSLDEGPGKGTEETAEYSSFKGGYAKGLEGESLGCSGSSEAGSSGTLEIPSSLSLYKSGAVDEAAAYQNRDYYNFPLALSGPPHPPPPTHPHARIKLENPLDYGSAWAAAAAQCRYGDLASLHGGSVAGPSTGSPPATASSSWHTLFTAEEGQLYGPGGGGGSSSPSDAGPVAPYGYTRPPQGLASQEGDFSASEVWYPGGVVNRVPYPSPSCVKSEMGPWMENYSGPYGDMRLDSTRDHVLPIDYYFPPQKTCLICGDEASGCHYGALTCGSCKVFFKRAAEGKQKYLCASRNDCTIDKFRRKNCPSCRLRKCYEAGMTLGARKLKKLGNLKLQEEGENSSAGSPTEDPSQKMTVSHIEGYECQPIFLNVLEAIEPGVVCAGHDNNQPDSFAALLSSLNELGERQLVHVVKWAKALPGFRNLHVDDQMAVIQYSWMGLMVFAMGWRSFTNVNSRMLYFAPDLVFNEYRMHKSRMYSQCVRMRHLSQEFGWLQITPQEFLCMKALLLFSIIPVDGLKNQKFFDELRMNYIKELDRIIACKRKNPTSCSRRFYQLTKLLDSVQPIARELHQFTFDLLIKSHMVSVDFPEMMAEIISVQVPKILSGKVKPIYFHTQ
Kind of series: AR reporter assay (MMTV-luc) in COS7 cells expressing rat AR. More on the design: Emax: dose or concentration left out as unconfirmed. The format is cell-based. Here is the method:
(§2) Two hours post‐transfection, the cells were plated in 96‐well plates at a density of 2 × 10^4 cells/well, and cultured at 37°C for 3 hours. […] Luciferase activity was measured using the Steady‐Glo Luciferase assay system (Promega) and an Envision Multimode Plate Reader (PerkinElmer).
as §1

The next series has as its target T2, cynomolgus monkey AR (Macaca fascicularis, UniProt O97952).
T2 construct: expressed in transfected cells; host or cells: COS7
T2 sequence (O97952 1-895): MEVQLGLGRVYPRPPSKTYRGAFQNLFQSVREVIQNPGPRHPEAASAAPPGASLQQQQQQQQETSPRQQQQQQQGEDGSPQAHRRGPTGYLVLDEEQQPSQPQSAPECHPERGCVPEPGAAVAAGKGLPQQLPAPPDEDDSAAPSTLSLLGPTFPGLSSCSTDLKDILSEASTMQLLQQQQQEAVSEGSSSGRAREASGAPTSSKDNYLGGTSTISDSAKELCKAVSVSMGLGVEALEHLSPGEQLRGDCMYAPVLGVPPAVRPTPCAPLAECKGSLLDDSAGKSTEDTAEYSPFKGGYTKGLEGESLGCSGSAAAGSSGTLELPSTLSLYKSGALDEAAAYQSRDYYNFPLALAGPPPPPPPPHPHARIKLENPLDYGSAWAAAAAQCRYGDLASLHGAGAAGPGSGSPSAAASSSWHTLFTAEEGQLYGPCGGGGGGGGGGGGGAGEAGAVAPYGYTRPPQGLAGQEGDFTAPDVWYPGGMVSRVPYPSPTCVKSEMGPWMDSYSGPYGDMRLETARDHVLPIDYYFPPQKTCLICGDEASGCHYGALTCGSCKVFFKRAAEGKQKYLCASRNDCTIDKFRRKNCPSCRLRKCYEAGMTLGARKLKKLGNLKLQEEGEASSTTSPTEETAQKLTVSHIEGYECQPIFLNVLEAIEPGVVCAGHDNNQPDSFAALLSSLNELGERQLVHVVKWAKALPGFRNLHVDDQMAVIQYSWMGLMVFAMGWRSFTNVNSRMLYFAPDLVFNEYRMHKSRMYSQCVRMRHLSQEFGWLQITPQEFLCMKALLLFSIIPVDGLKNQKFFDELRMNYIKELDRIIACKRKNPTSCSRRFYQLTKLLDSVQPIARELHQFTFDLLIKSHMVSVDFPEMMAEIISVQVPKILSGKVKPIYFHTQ
Kind of series: AR reporter assay (MMTV-luc) in COS7 cells expressing monkey AR. The format is cell-based. The procedure:
as §2, §1
In general terms: A reporter such as luciferase makes a cellular process visible.

For the next series, the target named is T3, human AR (Homo sapiens, UniProt P10275).
T3 construct: expressed in transfected cells; host or cells: COS7
T3 sequence (P10275 1-920): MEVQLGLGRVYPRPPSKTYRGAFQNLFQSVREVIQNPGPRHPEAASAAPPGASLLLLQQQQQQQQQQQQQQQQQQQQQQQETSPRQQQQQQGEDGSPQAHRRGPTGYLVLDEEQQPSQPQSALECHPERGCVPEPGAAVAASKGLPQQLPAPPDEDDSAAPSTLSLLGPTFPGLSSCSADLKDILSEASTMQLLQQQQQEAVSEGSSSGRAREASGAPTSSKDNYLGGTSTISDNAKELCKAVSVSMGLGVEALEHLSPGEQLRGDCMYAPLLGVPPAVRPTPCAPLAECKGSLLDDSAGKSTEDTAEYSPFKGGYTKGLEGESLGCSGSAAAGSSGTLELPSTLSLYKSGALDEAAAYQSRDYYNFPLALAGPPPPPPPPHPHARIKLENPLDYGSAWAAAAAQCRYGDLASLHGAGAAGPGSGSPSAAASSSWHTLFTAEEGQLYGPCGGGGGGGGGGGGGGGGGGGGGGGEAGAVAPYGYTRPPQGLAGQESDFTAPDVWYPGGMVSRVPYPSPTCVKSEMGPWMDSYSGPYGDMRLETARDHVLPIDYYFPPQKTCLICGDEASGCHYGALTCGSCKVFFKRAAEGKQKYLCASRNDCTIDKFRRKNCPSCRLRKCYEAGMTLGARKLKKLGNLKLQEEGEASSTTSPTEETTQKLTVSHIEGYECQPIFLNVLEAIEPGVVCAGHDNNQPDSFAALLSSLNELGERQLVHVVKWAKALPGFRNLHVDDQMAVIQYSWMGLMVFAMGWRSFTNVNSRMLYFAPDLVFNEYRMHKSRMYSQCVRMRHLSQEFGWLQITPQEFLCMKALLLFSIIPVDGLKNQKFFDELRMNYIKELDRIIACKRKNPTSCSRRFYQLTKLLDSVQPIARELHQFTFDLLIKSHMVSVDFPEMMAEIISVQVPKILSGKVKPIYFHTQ
Kind of series: AR reporter assay (MMTV-luc) in COS7 cells expressing human AR. The settings on record: COS-7, read-out: maximal activation level. The format is cell-based. More on the design: Emax: dose or concentration left out as unconfirmed. Here is the method: as §2, §1

On to `CCCCCCC(=O)O[C@H]1CC[C@H]2[C@@H]3CCC4=CC(=O)CC[C@]4(C)[C@H]3CC[C@]12C` [TE, Testosterone enanthate, reference compound], for which the “effect on BW” value in series [1] (within 4 weeks) is given as “significantly increasing the BW”. The “blood testosterone nadir levels” value in series [1] is reported as “approximately 1500 ng/dL”. Also, in series [2], the “Blood level of HDL‐c” value is on record as “did not affect”, the “Blood level of LDL‐c” value is “increase the LDL‐c level significantly”, the “Blood level of TG” value is reported as “did reduce the TG level” and the “Blood level of T‐chol” value is listed as “did not affect”. In series [2], the “Lp (a) protein level” value is reported as “did not affect”. Also, in series [3], the “Blood level of ALT” value is on record as “not changed” and the “Blood level of AST” value is “not changed”.

As to `C[C@](O)(COc1ccc(C#N)cc1)C(=O)Nc1ccc(C#N)c(C(F)(F)F)c1` [ostarine, reference compound], the values for the EC50 at rat AR and at cynomolgus monkey AR were 2.5 nM and 2.2 nM, respectively. Further, the Emax at rat AR (COS-7, read-out: maximal activation) came to 112%; on human AR, 141%. Besides, on cynomolgus monkey AR (monkey AR, at 1 μmol/L, 1 μmol/L DHT = 100%), the “maximal AR activation” value came out at 126%.
